Measured values reported in ChEMBL document CHEMBL4219142, “Discovery of potent DOT1L inhibitors by AlphaLISA based High Throughput Screening assay” (Bioorg Med Chem, 2018).

Tests used:
MV4-11 [1] = experiment: Cell cycle arrest in human MV411 cells assessed as accumulation at S phase at 0.625 uM after 24 hrs by propidium iodide staining based flow cytometric analysis (reference value: 30.25 to 47.5%); type: functional
MV4-11 [2] = experiment: Cell cycle arrest in human MV411 cells assessed as accumulation at S phase at 1.25 uM after 24 hrs by propidium iodide staining based flow cytometric analysis (reference value: 30.25 to 47.5%); type: functional
MV4-11 [3] = experiment: Induction of apoptosis in human MV411 cells assessed as early apoptotic cells at 0.625 uM after 48 hrs by Annexin-V-FITC/propidium iodide staining based flow cytometric method (reference value: 1.15 to […]); type: functional
[4] = biological target: T1, Histone-lysine N-methyltransferase, H3 lysine-79 specific (Homo sapiens, UniProt Q8TEK3); experiment: Inhibition of recombinant human His6-SUMO tagged DOT1L (1 to 416 residues) expressed in Escherichia coli BL21(DE3) using oligonucleosome as substrate pretreated for 15 mins followed by substrate addition measured after 60 mins in presence of [3H]SAM by liquid scintillation counting method
Target sequence in this assay (Q8TEK3 whole entry, the tested form may be a part): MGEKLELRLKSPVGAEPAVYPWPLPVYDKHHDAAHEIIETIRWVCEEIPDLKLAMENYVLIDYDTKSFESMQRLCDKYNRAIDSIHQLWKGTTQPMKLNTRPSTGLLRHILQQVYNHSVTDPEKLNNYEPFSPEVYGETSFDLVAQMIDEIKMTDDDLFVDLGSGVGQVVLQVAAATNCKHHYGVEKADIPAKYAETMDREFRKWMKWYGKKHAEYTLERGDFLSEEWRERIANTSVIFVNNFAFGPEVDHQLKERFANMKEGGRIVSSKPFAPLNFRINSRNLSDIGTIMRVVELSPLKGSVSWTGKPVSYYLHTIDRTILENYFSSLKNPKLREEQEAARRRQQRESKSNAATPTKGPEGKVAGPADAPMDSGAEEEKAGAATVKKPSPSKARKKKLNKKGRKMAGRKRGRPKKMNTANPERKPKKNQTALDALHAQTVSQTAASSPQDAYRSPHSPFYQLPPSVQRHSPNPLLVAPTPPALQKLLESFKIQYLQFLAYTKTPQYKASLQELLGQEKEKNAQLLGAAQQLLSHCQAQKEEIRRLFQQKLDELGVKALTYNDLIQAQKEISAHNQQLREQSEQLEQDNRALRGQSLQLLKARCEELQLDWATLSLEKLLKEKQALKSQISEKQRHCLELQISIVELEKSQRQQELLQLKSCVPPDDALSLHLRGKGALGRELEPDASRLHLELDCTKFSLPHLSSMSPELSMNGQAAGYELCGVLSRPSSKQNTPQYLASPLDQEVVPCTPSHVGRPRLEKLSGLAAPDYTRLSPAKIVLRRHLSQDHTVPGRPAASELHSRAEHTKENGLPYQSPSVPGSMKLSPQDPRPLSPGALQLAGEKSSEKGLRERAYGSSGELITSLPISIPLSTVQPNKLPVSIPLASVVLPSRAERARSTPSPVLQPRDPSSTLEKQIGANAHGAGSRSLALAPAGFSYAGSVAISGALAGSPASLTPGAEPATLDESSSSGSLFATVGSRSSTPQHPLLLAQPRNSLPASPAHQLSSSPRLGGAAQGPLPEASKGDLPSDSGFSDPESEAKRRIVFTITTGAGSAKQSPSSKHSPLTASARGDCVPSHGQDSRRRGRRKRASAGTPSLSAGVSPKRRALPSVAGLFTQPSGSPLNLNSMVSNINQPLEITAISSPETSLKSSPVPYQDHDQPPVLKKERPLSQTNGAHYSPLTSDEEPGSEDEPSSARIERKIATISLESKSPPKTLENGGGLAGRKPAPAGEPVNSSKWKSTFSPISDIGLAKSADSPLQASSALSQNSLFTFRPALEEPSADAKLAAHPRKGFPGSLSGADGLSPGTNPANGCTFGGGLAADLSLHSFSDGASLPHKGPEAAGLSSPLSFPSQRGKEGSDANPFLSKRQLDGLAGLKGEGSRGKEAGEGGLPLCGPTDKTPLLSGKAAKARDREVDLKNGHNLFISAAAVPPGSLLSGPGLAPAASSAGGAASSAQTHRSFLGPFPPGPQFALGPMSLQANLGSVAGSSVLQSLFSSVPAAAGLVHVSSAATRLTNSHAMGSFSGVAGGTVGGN

MV4-11 [5] = experiment: Induction of apoptosis in human MV411 cells assessed as necrotic cells at 0.625 uM after 48 hrs by Annexin-V-FITC/propidium iodide staining based flow cytometric method (Rvb <= 0.08%); type: functional
MV4-11 [6] = experiment: Cell cycle arrest in human MV411 cells assessed as accumulation at G1 phase after 24 hrs by propidium iodide staining based flow cytometric analysis; type: functional
MV4-11 [7] = experiment: Cell cycle arrest in human MV411 cells assessed as accumulation at G1 phase at 0.625 uM after 24 hrs by propidium iodide staining based flow cytometric analysis (reference value: 40.62 to 65.56%); type: functional
MV4-11 [8] = experiment: Cell cycle arrest in human MV411 cells assessed as accumulation at G2 phase at 1.25 uM after 24 hrs by propidium iodide staining based flow cytometric analysis (reference value: 4.19 to 11.88%); type: functional
MV4-11 [9] = experiment: Induction of apoptosis in human MV411 cells assessed as necrotic cells at 1.25 uM after 48 hrs by Annexin-V-FITC/propidium iodide staining based flow cytometric method (Rvb <= 0.08%); type: functional
MV4-11 [10] = experiment: Induction of apoptosis in human MV411 cells assessed as late apoptotic cells at 1.25 uM after 48 hrs by Annexin-V-FITC/propidium iodide staining based flow cytometric method (reference value: 4.38 to 4.63%); type: functional
[11] = biological target: T1, Histone-lysine N-methyltransferase, H3 lysine-79 specific; experiment: Inhibition of recombinant human His6-SUMO tagged DOT1L (1 to 416 residues) expressed in Escherichia coli BL21(DE3) at 25 uM using oligonucleosome as substrate pretreated for 15 mins followed by substrate addition measured after 60 mins in presence of [3H]SAM by liquid scintillation counting method relative to control
Target sequence in this assay (Q8TEK3 whole entry, looked up, the tested form may be a part): as the sequence (Q8TEK3 whole entry, the tested form may be a part) above

MV4-11 [12] = experiment: Induction of apoptosis in human MV411 cells assessed as late apoptotic cells at 0.3125 uM after 48 hrs by Annexin-V-FITC/propidium iodide staining based flow cytometric method (reference value: 4.38 to 4.63%); type: functional
MV4-11 [13] = experiment: Antiproliferative activity against human MV411 cells after 72 hrs by Alamar blue assay; type: functional, cell-based; conditions: MV4-11, 72 h
MV4-11 [14] = experiment: Cell cycle arrest in human MV411 cells assessed as accumulation at G1 phase at 1.25 uM after 24 hrs by propidium iodide staining based flow cytometric analysis (reference value: 40.62 to 65.56%); type: functional
[15] = biological target: T1, Histone-lysine N-methyltransferase, H3 lysine-79 specific; experiment: Inhibition of recombinant human His6-SUMO tagged DOT1L (1 to 416 residues) expressed in Escherichia coli BL21(DE3) at 100 uM using oligonucleosome as substrate pretreated for 15 mins followed by substrate addition measured after 60 mins in presence of [3H]SAM by liquid scintillation counting method relative to control
Target sequence in this assay (Q8TEK3 whole entry, looked up, the tested form may be a part): as the sequence (Q8TEK3 whole entry, the tested form may be a part) above

MV4-11 [16] = experiment: Cell cycle arrest in human MV411 cells assessed as accumulation at G2 phase at 0.3125 uM after 24 hrs by propidium iodide staining based flow cytometric analysis (reference value: 4.19 to 11.88%); type: functional
MV4-11 [17] = experiment: Cell cycle arrest in human MV411 cells assessed as accumulation at G1 phase at 0.3125 uM after 24 hrs by propidium iodide staining based flow cytometric analysis (reference value: 40.62 to 65.56%); type: functional
MV4-11 [18] = experiment: Induction of apoptosis in human MV411 cells assessed as early apoptotic cells at 1.25 uM after 48 hrs by Annexin-V-FITC/propidium iodide staining based flow cytometric method (reference value: 1.15 to […]); type: functional
MV4-11 [19] = experiment: Induction of apoptosis in human MV411 cells assessed as viable cells at 1.25 uM after 48 hrs by Annexin-V-FITC/propidium iodide staining based flow cytometric method (reference value: 88.5 to 94.5%); type: functional; conditions: MV4-11, 48 h, read-out: Activity
[20] = biological target: T1, Histone-lysine N-methyltransferase, H3 lysine-79 specific; experiment: Inhibition of recombinant human His6-SUMO tagged DOT1L (1 to 416 residues) expressed in Escherichia coli BL21(DE3) at 50 uM using oligonucleosome as substrate pretreated for 15 mins followed by substrate addition measured after 60 mins in presence of [3H]SAM by liquid scintillation counting method relative to control
Target sequence in this assay (Q8TEK3 whole entry, looked up, the tested form may be a part): as the sequence (Q8TEK3 whole entry, the tested form may be a part) above

[21] = biological target: T1, Histone-lysine N-methyltransferase, H3 lysine-79 specific; experiment: Binding affinity to recombinant human His6-SUMO tagged DOT1L (1 to 416 residues) expressed in Escherichia coli BL21(DE3) by surface plasmon resonance method
Target sequence in this assay (Q8TEK3 whole entry, the tested form may be a part): as above

MV4-11 [22] = experiment: Induction of apoptosis in human MV411 cells assessed as necrotic cells at 0.3125 uM after 48 hrs by Annexin-V-FITC/propidium iodide staining based flow cytometric method (Rvb <= 0.08%); type: functional
MV4-11 [23] = experiment: Cell cycle arrest in human MV411 cells assessed as accumulation at S phase at 0.3125 uM after 24 hrs by propidium iodide staining based flow cytometric analysis (reference value: 30.25 to 47.5%); type: functional
MV4-11 [24] = experiment: Cell cycle arrest in human MV411 cells assessed as accumulation at G2 phase at 0.625 uM after 24 hrs by propidium iodide staining based flow cytometric analysis (reference value: 4.19 to 11.88%); type: functional
MV4-11 [25] = experiment: Induction of apoptosis in human MV411 cells assessed as viable cells at 0.3125 uM after 48 hrs by Annexin-V-FITC/propidium iodide staining based flow cytometric method (reference value: 88.5 to 94.5%); type: functional; conditions: MV4-11, 48 h, read-out: Activity
MV4-11 [26] = experiment: Induction of apoptosis in human MV411 cells assessed as late apoptotic cells at 0.625 uM after 48 hrs by Annexin-V-FITC/propidium iodide staining based flow cytometric method (reference value: 4.38 to 4.63%); type: functional
MV4-11 [27] = experiment: Induction of apoptosis in human MV411 cells assessed as viable cells at 0.625 uM after 48 hrs by Annexin-V-FITC/propidium iodide staining based flow cytometric method (reference value: 88.5 to 94.5%); type: functional; conditions: MV4-11, 48 h, read-out: Activity
MV4-11 [28] = experiment: Induction of apoptosis in human MV411 cells assessed as early apoptotic cells at 0.3125 uM after 48 hrs by Annexin-V-FITC/propidium iodide staining based flow cytometric method (reference value: 1.15 to […]); type: functional

SMILES: COc1ccccc1-c1nnc2sc(/C=C/c3ccco3)nn12
- Activity (MV4-11 [1]): 32.19%
- Activity (MV4-11 [2]): 18.51%
- Activity (MV4-11 [3]): 33.2%
- IC50 [4]: 9.7 µM
- Activity (MV4-11 [5]): 1.11%
- Activity (MV4-11 [6]): Dose-dependent effect
- Activity (MV4-11 [7]): 57.22%
- Activity (MV4-11 [8]): 23.18%
- Activity (MV4-11 [9]): 0.91%
- Activity (MV4-11 [10]): 45.5%
- inhibition [11]: 62%
- Activity (MV4-11 [12]): 12%
- IC50 (MV4-11 [13]): 1.07 µM
- Activity (MV4-11 [14]): 58.01%
- inhibition [15]: 78%
- Activity (MV4-11 [16]): 16.17%
- Activity (MV4-11 [17]): 46.31%
- Activity (MV4-11 [18]): 44.1%
- viability at 1.25 µM (MV4-11 [19]): 9.46%
- inhibition [20]: 75%
- Kd [21]: 7.08 µM
- Activity (MV4-11 [22]): 0.72%
- Activity (MV4-11 [23]): 37.51%
- Activity (MV4-11 [24]): 10.59%
- viability at 0.3125 µM (MV4-11 [25]): 73.6%
- Activity (MV4-11 [26]): 35.3%
- viability at 0.625 µM (MV4-11 [27]): 30.4%
- Activity (MV4-11 [28]): 13.7%
